Laboratory results reported in ChEMBL document CHEMBL4184256, “Synthesis and biological evaluation of longanlactone analogues as neurotrophic agents” (Bioorg Med Chem Lett, 2018).
Activity calls are given as the source filed them. No cut-off for these calls is given here.

Legend:
[1] = tested on: N2a; assay: Neurotrophic activity in mouse Neuro2a cells assessed as increase in neurite length at 0.1 uM incubated for 48 hrs relative to untreated control; type: functional
[2] = tested on: N2a; assay: Cytotoxicity in mouse Neuro2a cells assessed as reduction in cell viability by MTT assay; type: cell-based
[3] = tested on: N2a; assay: Neurotrophic activity in mouse Neuro2a cells assessed as increase in neurite length at 0.01 uM incubated for 48 hrs relative to untreated control; type: functional
[4] = tested on: N2a; assay: Neurotrophic activity in mouse Neuro2a cells assessed as increase in BDNF mRNA expression at 0.1 uM incubated for 2 hrs by RT-qPCR method relative to untreated control
[5] = tested on: N2a; assay: Neurotrophic activity in mouse Neuro2a cells assessed as increase in NT3 mRNA expression at 0.1 uM incubated for 2 hrs by RT-qPCR method relative to untreated control
[6] = tested on: N2a; assay: Neurotrophic activity in mouse Neuro2a cells assessed as increase in NT3 mRNA expression at 0.01 uM incubated for 2 hrs by RT-qPCR method relative to untreated control
[7] = tested on: N2a; assay: Neurotrophic activity in mouse Neuro2a cells assessed as increase in BDNF mRNA expression at 0.01 uM incubated for 2 hrs by RT-qPCR method relative to untreated control

Row | Structure (SMILES) | Activity [1] | IC50 [2] | Activity [3] | Activity [4] | Activity [5] | Activity [6] | Activity [7]
1 | C#CC[C@H]1C[C@H](n2cccc2C(C)=O)C(=O)O1 | 20.95% | > 100 µM | 9.04% | – | – | – | –
2 | C#CC[C@@H]1C[C@H](n2cccc2)C(=O)O1 | 10.9% | ≥ 100 µM | 6.56% | – | – | – | –
3 | CC(=O)c1cccn1[C@H]1C[C@@H](Cc2cn(Cc3ccccc3)nn2)OC1=O | 15.62% | 91.6 µM | 5.41% | – | – | – | –
4 | CC(=O)c1cccn1[C@H]1C[C@@H](Cc2cn([C@H]3C[C@H](n4cc(C)c(=O)[nH]c4=O)O[C@@H]3CO)nn2)OC1=O | 6.61% | 96.2 µM | 3.67% | – | – | – | –
5 | CC(=O)c1cccn1[C@H]1C[C@H](Cc2cn(Cc3ccccc3)nn2)OC1=O | 17.02% | 66.9 µM | -2.23% | – | – | – | –
6 | C#CC[C@H]1C[C@H](n2cccc2C(=O)C(F)(F)F)C(=O)O1 | 22.22% | 97.8 µM | 7.76% | – | – | – | –
7 | C#CC[C@H]1C[C@H](n2cccc2)C(=O)O1 | 14.56% | > 100 µM | 12.15% | – | – | – | –
8 | C#CC[C@@H]1C[C@H](n2cccc2C(C)=O)C(=O)O1 | 37.01% | 121 µM | 8.03% | Active | inactive | – | –
9 | CC(=O)c1cccn1[C@H]1C[C@H](CC#Cc2ccc([N+](=O)[O-])cc2)OC1=O | 13.27% | > 100 µM | 1.43% | – | – | – | –
10 | CC(=O)c1cccn1[C@H]1C[C@H](Cc2cn([C@H]3C[C@H](n4cc(C)c(=O)[nH]c4=O)O[C@@H]3CO)nn2)OC1=O | 14.8% | 95.8 µM | 9.52% | – | – | – | –
11 | C#CC[C@@H]1C[C@H](n2cccc2C(=O)CC)C(=O)O1 | 9.47% | 40.6 µM | 11.63% | – | – | – | –
12 | C#CC[C@H]1C[C@H](n2cccc2C(=O)CC)C(=O)O1 | 9.5% | 40.7 µM | 4.63% | – | – | – | –
13 | CC(=O)c1cccn1[C@H]1C[C@@H](CC#Cc2ccc([N+](=O)[O-])cc2)OC1=O | 9.11% | > 100 µM | -7.58% | – | – | – | –
14 | C#CC[C@@H]1C[C@H](n2cccc2C(=O)C(F)(F)F)C(=O)O1 | 41.02% | > 100 µM | 33.74% | – | – | inactive | Active
